Results: article PMC6100046, “Plasma Pharmacokinetic Determination of Canagliflozin and Its Metabolites in a Type 2 Diabetic Rat Model by UPLC-MS/MS” (Molecules : A Journal of Synthetic Chemistry and Natural …, 2018)
Where two headings read alike, the source gives them in different places. Each block holds one molecule with its values, some of them ahead of it.

Key:
[1] = Stability of canagliflozin in rat plasma samples (QC samples); type: in vitro ADME; settings: for Concentration found after storage (Mean ± SD): rat plasma, n = 5
Procedure: High, medium and low levels of QC concentrations were used to evaluate the stability of canagliflozin in plasma under the experimental conditions.
The specificity of the method was evaluated by comparing the chromatography of rat blank plasma samples with blank rat plasma spiked with standards at high, medium, low concentrations including LLOQ and rat plasma samples after oral administration of canagliflozin. The intra-day accuracy and precision were determined by analyzing five replicates of the QC samples at high, medium, and low concentrations within one day, while the inter-day accuracy and precision were conducted by determining five replicates of four levels of QCs on 3 separate days. The assay’s accuracy was represented by the […]. The precision was represented as the relative standard deviation (RSD) of the replicates. The matrix effect was determined by dividing the peak areas of canagliflozin spiked into extracted blank plasma by that of the analyte spiked in the mobile phase. The extraction recovery of canagliflozin and IS was assessed by comparing the peak areas of extracted plasma. […] […] The freeze (−80 °C)–thaw (room temperature) stability of the analytes in rat plasma was tested via three freeze–thaw cycles. […] In regard to the storage stability, the QC samples were prepared and stored at −80 °C for 30 days.

[2] = Plasma pharmacokinetics of canagliflozin and its metabolites after oral administration to CTRL and type 2 diabetic (DM) rats, UPLC-MS/MS; type: in vivo, rat; settings: for AUC(0-inf) / Tmax / MRT last / half-life / Cmax: po; for AUC(0-inf): AUC0–∞, heading: AUC0–∞; for MRT last: read-out: MRT0–t; for half-life: read-out: t1/2z (converted); for Cmax: metabolites semi-quantitative; for Concentration of metabolite in rat plasma (in words): rat plasma after canagliflozin, UPLC-TOF-MS/MS identification
From the text: The determination of metabolite concentrations was done by a semi-quantitative analysis method: the peak area of the metabolites was divided by the peak area of the original drug and then multiplied by the concentration of original drug.
The type 2 diabetic model was developed using a combination of a high-fat diet (HFD) and low-dose STZ injection. Briefly, rats were randomized into CTRL (control) and DM (diabetes mellitus) groups. The CTRL rats received a standard diet, whereas DM rats were fed high-fat food, which consisted of 63.5–66.5% normal chow, 1% cholesterol, 0.5% sodium cholate, 10% yolk, 12–15% lard, and 10% sucrose. DM rats were given an intraperitoneal injection of STZ (35 mg/kg, dissolved in citrate buffer, pH 4.5) after 4 weeks of dietary alteration, and CTRL rats received an equivalent injection of citrate buffer only. The blood glucose concentrations, food intake, and body weights of the rats were monitored weekly. Rats with non-fasting blood glucose levels lower than 16.67 mmol/L (300 mg/dL) were excluded from the DM group. Biochemical parameters (serum triglycerides, serum total cholesterol, and insulin) were measured on day 28 after the injection of STZ. The homeostasis model assessment of insulin resistance (HOMA-IR) was calculated by a standard equation to examine insulin sensitivity. The following experiments were performed on day 35 after STZ injection.
We performed the pharmacokinetic studies of canagliflozin after oral administration by gavage, and all rats used in this research were fasted for 12 h before dosing. CTRL and DM group rats (5 rats in each group) received a dose of canagliflozin at 20 mg/kg that was suspended in 0.5% sodium carboxymethylcellulose. A blood quantity of less than 0.3 mL was sampled via the oculi chorioideae vein after administration of canagliflozin at 1, 2, 3, 4, 5, 6, 7, 8, 10, 12, 24, 36 and 48 h under light ether anesthesia. All blood samples were immediately centrifuged at 5000 rpm for 10 min and the plasma was collected and frozen at −40 °C until analysis.
The acquisition software used were Analyst TF 1.7.1 software and Analyst software (AB Sciex, Redwood city, CA, USA). The pharmacokinetic parameters were processed by non-compartmental analysis using DAS 2.1.1 software (Mathematical Pharmacology Professional Committee of China, Shanghai, China). Data are presented as means ± SDs. Statistical differences were evaluated by Student’s t-test. A p-value of less than 0.05 indicated a statistically significant difference (SPSS 18.0 software, SPSS Inc., Chicago, IL, USA).

[3] = rat, plasma, 20 mg/kg, CTRL rats, canagliflozin 20 mg/kg oral, mean ± SD, n = 5
[4] = rat, plasma, 20 mg/kg, DM (type 2 diabetic) rats, canagliflozin 20 mg/kg oral, mean ± SD, n = 5

- Stability in rat plasma (in words) ([1]; auto-sampler temperature (4 °C), 24 h): good stability
- Concentration found after storage (Mean ± SD) ([1]; autosampler (4 °C) for 24 h, nominal concentration 25): 25.7 ± 0.33 ng/mL
- Concentration found after storage (Mean ± SD) ([1]; autosampler (4 °C) for 24 h, nominal concentration 500): 503.1 ± 4.41 ng/mL
- Concentration found after storage (Mean ± SD) ([1]; autosampler (4 °C) for 24 h, nominal concentration 800): 806.8 ± 5.64 ng/mL
- Concentration found after storage (Mean ± SD) ([1]; room temperature (25 °C) for 24 h, nominal concentration 25): 26.2 ± 0.96 ng/mL
- Concentration found after storage (Mean ± SD) ([1]; room temperature (25 °C) for 24 h, nominal concentration 500): 504.4 ± 3.18 ng/mL
- Concentration found after storage (Mean ± SD) ([1]; room temperature (25 °C) for 24 h, nominal concentration 800): 807.3 ± 6.12 ng/mL
- Concentration found after storage (Mean ± SD) ([1]; three freeze–thaw cycles (each at −80 °C for 24 h), nominal concentration 25): 26 ± 1.02 ng/mL
- Concentration found after storage (Mean ± SD) ([1]; three freeze–thaw cycles (each at −80 °C for 24 h), nominal concentration 500): 505.2 ± 4.12 ng/mL
- Concentration found after storage (Mean ± SD) ([1]; three freeze–thaw cycles (each at −80 °C for 24 h), nominal concentration 800): 806.2 ± 4.19 ng/mL
- Concentration found after storage (Mean ± SD) ([1]; −80 °C for 30 days, nominal concentration 25): 26.9 ± 0.85 ng/mL
- Concentration found after storage (Mean ± SD) ([1]; −80 °C for 30 days, nominal concentration 500): 504.3 ± 2.14 ng/mL
- Concentration found after storage (Mean ± SD) ([1]; −80 °C for 30 days, nominal concentration 800): 806.3 ± 3.51 ng/mL
- Stability in rat plasma (in words) ([1]; room temperature (25 °C) for 24 h): stable
- Stability in rat plasma (in words) ([1]; storage conditions (−80 °C) for at least 30 days): stable
- Stability in rat plasma (in words) ([1]; −80 °C followed by three freeze and thaw cycles): good stability
- CL/F ([2]; rat, plasma, 20 mg/kg, heading: CLz/F, CTRL rats, canagliflozin 20 mg/kg oral, mean ± SD, n = 5): 5.96 mL/min/kg
- AUC(0-inf) ([2]; rat, plasma, 20 mg/kg, CTRL rats, canagliflozin 20 mg/kg oral, plasma, mean ± SD, n = 5): 56300 ng·h/mL
- AUC(0-inf) ([2]; rat, plasma, 20 mg/kg, DM (type 2 diabetic) rats, canagliflozin 20 mg/kg oral, plasma, mean ± SD, n = 5): 28400 ng·h/mL
- Tmax [2, 3]: 3.6 ± 0.89 h
- MRT last [2, 3]: 14.1 ± 1.58 h
- half-life [2, 3]: 12.9 ± 2.64 h
- Cmax [2, 3]: 3310 ± 566 ng/mL
- Cmax [2, 4]: 2230 ± 559 ng/mL
- Tmax [2, 4]: 3.2 ± 0.45 h
- MRT last [2, 4]: 12.3 ± 2.77 h
- half-life [2, 4]: 10.2 ± 3.49 h
SMILES: Cc1ccc([C@@H]2O[C@H](CO)[C@@H](O)[C@H](O)[C@H]2O)cc1Cc1ccc(-c2ccc(F)cc2)s1 [Canagliflozin]

- Concentration of metabolite in rat plasma (in words) [2]: high
- Tmax [2, 3]: 1.8 ± 0.84 h
- half-life [2, 3]: 14.6 ± 18.3 h
- Cmax [2, 3]: 126 ± 31.1 ng/mL
- Cmax [2, 4]: 160 ± 54.4 ng/mL
- Tmax [2, 4]: 1.67 ± 0.58 h
- half-life [2, 4]: 13.3 ± 6.25 h
SMILES: Cc1ccc(C2OC(CO)C(O)C(O)C2OC2OC(C(=O)O)C(O)C(O)C2O)cc1Cc1ccc(-c2ccc(F)cc2)s1 (stereo not shown) [M5]

- Concentration of metabolite in rat plasma (in words) [2]: high
- Tmax [2, 3]: 2.02 ± 0.11 h
- half-life [2, 3]: 10 ± 6.45 h
- Cmax [2, 3]: 44.9 ± 20.5 ng/mL
- Cmax [2, 4]: 90.6 ± 18.7 ng/mL
- Tmax [2, 4]: 1.81 ± 0.12 h
- half-life [2, 4]: 14.5 ± 4.86 h
SMILES: Cc1ccc(C2OC(CO)C(O)C(OC3OC(C(=O)O)C(O)C(O)C3O)C2O)cc1Cc1ccc(-c2ccc(F)cc2)s1 (stereo not shown) [M7]

- Concentration of metabolite in rat plasma (in words) [2]: almost too low to quantify
SMILES: OCc1ccc([C@@H]2O[C@H](CO)[C@@H](O)[C@H](O)[C@H]2O)cc1Cc1ccc(-c2ccc(F)cc2)s1 [M8]

- Concentration of metabolite in rat plasma (in words) [2]: high
- Tmax [2, 3]: 5.01 ± 0.11 h
- half-life [2, 3]: 10.7 ± 1.63 h
- Cmax [2, 3]: 97.5 ± 10.8 ng/mL
- Cmax [2, 4]: 161 ± 10.5 ng/mL
- Tmax [2, 4]: 4.75 ± 0.5 h
- half-life [2, 4]: 12.8 ± 8.81 h
SMILES: Cc1ccc(C2OC(CO)C(O)C(O)C2O)cc1C(O)c1ccc(-c2ccc(F)cc2)s1 (stereo not shown) [M9]
